Results as given in PubChem BioAssay AID330 (DTP/NCI, 2004).
Where “and” joins values, the source holds several entries; their conditions need not be identical. Equal entries are not always repeated. Inconclusive results and toxic doses are left out.

Tested on: P388 leukemia ip, CD2F1 mice, survival T/C
Assay: NCI In Vivo Anticancer Drug Screen. Data for tumor model P388 Leukemia (intraperitoneal) in CD2F1 (CDF1) mice
Conditions: endpoint: median survival time, higher = longer survival
How it was run: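 Mice carrying the transplanted tumor received test compound or vehicle. Survival was recorded in each group, and the value is the treated-group measurement divided by that of the vehicle-treated control group.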

[1] = dose: 12.5 mg/kg/injection, schedule: Q01DX009 (ip), vehicle: saline with Tween-80
[2] = dose: 25.0 mg/kg/injection, schedule: Q01DX009 (ip), vehicle: saline with Tween-80

SMILES: N#CC(=C1N=c2ccccc2=N1)c1[nH]c(O)c2ccccc12
- T/C (dose: 6.25 mg/kg/injection, schedule: Q01DX009 (ip), vehicle: saline with Tween-80): 93 % of control
- T/C [1]: 91 % of control
- T/C [2]: 94 % of control

SMILES: CCC[C@@H]1C[C@@H](OC(=S)SC)C[C@H]2CCC(=O)N12
- T/C (dose: 50.0 mg/kg/injection, schedule: Q01DX005 (ip), vehicle: Klucel + Tween-80): 102 % of control
- T/C (dose: 100.0 mg/kg/injection, schedule: Q01DX005 (ip), vehicle: Klucel + Tween-80): 93 % of control
- T/C (dose: 200.0 mg/kg/injection, schedule: Q01DX005 (ip), vehicle: Klucel + Tween-80): 107 % of control

SMILES: CCOC(=O)Cc1c(C)noc1OC
- T/C (dose: 25.0 mg/kg/injection, schedule: Q01DX005 (ip), vehicle: saline with Tween-80): 106 % of control
- T/C (dose: 50.0 mg/kg/injection, schedule: Q01DX005 (ip), vehicle: saline with Tween-80): 97 % of control
- T/C (dose: 100.0 mg/kg/injection, schedule: Q01DX005 (ip), vehicle: saline with Tween-80): 99 % of control
- T/C (dose: 200.0 mg/kg/injection, schedule: Q01DX005 (ip), vehicle: saline with Tween-80): 97 % of control

SMILES: COc1ccc(CCNC(=O)Cc2ccc(OC)c(OCc3ccccc3)c2)cc1OC
- T/C (dose: 25.0 mg/kg/injection, schedule: Q01DX009 (ip), vehicle: other): 95 % of control
- T/C (dose: 50.0 mg/kg/injection, schedule: Q01DX009 (ip), vehicle: other): 95 % of control
- T/C (dose: 100.0 mg/kg/injection, schedule: Q01DX009 (ip), vehicle: other): 89 % of control
- T/C (dose: 200.0 mg/kg/injection, schedule: Q01DX009 (ip), vehicle: other): 86 % of control
- T/C (dose: 400.0 mg/kg/injection, schedule: Q01DX009 (ip), vehicle: other): 89 % of control

SMILES: CCOC(=O)C1=C(SC)SC(C(=O)OCC)C2C=C(C)C=CN12 (stereo unspecified)
- T/C (dose: 15.0 mg/kg/injection, schedule: Q01DX005 (ip), vehicle: Klucel + Tween-80): 97 % of control
- T/C (dose: 30.0 mg/kg/injection, schedule: Q01DX005 (ip), vehicle: Klucel + Tween-80): 108 % of control
- T/C (dose: 60.0 mg/kg/injection, schedule: Q01DX005 (ip), vehicle: Klucel + Tween-80): 104 % of control and 96 % of control

SMILES: CSc1ncc(Br)c(Sc2nc(N)nc3nc[nH]c23)n1
- T/C [1]: 95 % of control
- T/C [2]: 86 % of control

SMILES: Cc1nc2c([N+](=O)[O-])c(NCCO)c([N+](=O)[O-])cc2[nH]1
- T/C (dose: 100.0 mg/kg/injection, schedule: Q04DX003 (ip), vehicle: saline with Tween-80): 94 % of control
- T/C (dose: 200.0 mg/kg/injection, schedule: Q04DX003 (ip), vehicle: saline with Tween-80): 92 % of control
- T/C (dose: 400.0 mg/kg/injection, schedule: Q04DX003 (ip), vehicle: saline with Tween-80): 103 % of control

SMILES: CCCCCCCCCCCCOC(=O)c1ccc(I)cc1
- T/C (dose: 50.0 mg/kg/injection, schedule: Q01DX009 (ip), vehicle: saline with Tween-80): 97 % of control
- T/C (dose: 100.0 mg/kg/injection, schedule: Q01DX009 (ip), vehicle: saline with Tween-80): 97 % of control
- T/C (dose: 200.0 mg/kg/injection, schedule: Q01DX009 (ip), vehicle: saline with Tween-80): 102 % of control

SMILES: N[C@H](C(=O)O)[C@@H]1CC(S(=O)(=O)c2ccccc2)=NO1
- T/C (dose: 12.5 mg/kg/injection, schedule: Q01DX005 (ip), vehicle: distilled water + Tween-80): 102 % of control
- T/C (dose: 25.0 mg/kg/injection, schedule: Q01DX005 (ip), vehicle: distilled water + Tween-80): 102 % of control

SMILES: O=C1c2ccccc2OC2CCON12 (stereo unspecified)
- T/C (dose: 50.0 mg/kg/injection, schedule: Q01DX009 (ip), vehicle: Klucel (hydroxypropylcellulose) (HPC)): 100 % of control
- T/C (dose: 100.0 mg/kg/injection, schedule: Q01DX009 (ip), vehicle: Klucel (hydroxypropylcellulose) (HPC)): 100 % of control
- T/C (dose: 200.0 mg/kg/injection, schedule: Q01DX009 (ip), vehicle: Klucel (hydroxypropylcellulose) (HPC)): 116 % of control

SMILES: Cc1cccc(O)c1O
- T/C (dose: 100.0 mg/kg/injection, schedule: Q01DX009 (ip), vehicle: saline): 102 % of control
- T/C (dose: 200.0 mg/kg/injection, schedule: Q01DX009 (ip), vehicle: saline): 121 % of control and 122 % of control

SMILES: CCC1CC(C(=O)O)CC(=O)N1 (stereo unspecified)
- T/C (dose: 17.5 mg/kg/injection, schedule: Q01DX005 (ip), vehicle: Klucel (hydroxypropylcellulose) (HPC)): 92 % of control
- T/C (dose: 35.0 mg/kg/injection, schedule: Q01DX005 (ip), vehicle: Klucel (hydroxypropylcellulose) (HPC)): 90 % of control
- T/C (dose: 70.0 mg/kg/injection, schedule: Q01DX005 (ip), vehicle: Klucel (hydroxypropylcellulose) (HPC)): 97 % of control

SMILES: CCOC(=O)C([NH-])C([NH-])C(=O)OCC.[Cl][Pt+2][Cl] (stereo unspecified)
- T/C (dose: 12.5 mg/kg/injection, schedule: Q04DX002 (ip), vehicle: saline with Tween-80): 163 % of control
- T/C (dose: 25.0 mg/kg/injection, schedule: Q04DX002 (ip), vehicle: saline with Tween-80): 164 % of control

SMILES: O=c1c2ccccc2cc2n1CCN2
- T/C (dose: 50.0 mg/kg/injection, schedule: Q01DX005 (ip), vehicle: Klucel (hydroxypropylcellulose) (HPC)): 96 % of control
- T/C (dose: 100.0 mg/kg/injection, schedule: Q01DX005 (ip), vehicle: Klucel (hydroxypropylcellulose) (HPC)): 112 % of control
- T/C (dose: 200.0 mg/kg/injection, schedule: Q01DX005 (ip), vehicle: Klucel (hydroxypropylcellulose) (HPC)): 107 % of control
